# Read-outs that look alike come from different tables or passages of the source.
# Assays:
# TEAD3 = TEAD3 (Homo sapiens (Human), UniProt Q99594); assay: TR-FRET lipid pocket probe competition assay (Lipid HTRF), TEAD3; format: binding; details: 4 hours pre-incubation; read-out: Lipid HTRF TEAD3 IC50
# TEAD1 = TEAD1 (Homo sapiens (Human), UniProt P28347); assay: TR-FRET lipid pocket probe competition assay (Lipid HTRF), TEAD1; format: binding; details: 4 hours pre-incubation; read-out: Lipid HTRF TEAD1 IC50;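 further: His-tagged TEAD1 with biotinylated probe, detected via Europium anti-His and XL665 streptavidin, probe displacement lowers TR-FRET signal, IC50 from four-parameter nonlinear fit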
# Chain of TEAD1 (P28347 whole entry, species assumed): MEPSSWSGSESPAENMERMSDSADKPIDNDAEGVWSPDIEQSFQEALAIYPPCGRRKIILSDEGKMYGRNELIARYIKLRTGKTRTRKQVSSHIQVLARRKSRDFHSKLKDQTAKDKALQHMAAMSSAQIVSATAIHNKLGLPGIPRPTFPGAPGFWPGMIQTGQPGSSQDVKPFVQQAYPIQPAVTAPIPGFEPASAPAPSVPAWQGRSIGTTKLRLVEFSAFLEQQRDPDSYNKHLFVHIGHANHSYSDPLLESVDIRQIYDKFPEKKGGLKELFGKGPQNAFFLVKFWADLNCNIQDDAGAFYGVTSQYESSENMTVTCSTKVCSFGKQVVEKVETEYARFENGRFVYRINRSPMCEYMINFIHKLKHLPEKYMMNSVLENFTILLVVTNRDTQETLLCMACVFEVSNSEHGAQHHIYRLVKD
# TEAD2 [1] = target: T1, TEAD2 (Homo sapiens (Human), UniProt Q15562); assay: biochemical;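 further: TR-FRET competition assay with His-tagged TEAD protein and a biotinylated lipid pocket probe, compound pre-incubated 30 min or 4 h at room temperature, displacement lowers signal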
# T1 sequence (Q15562 whole entry, species assumed): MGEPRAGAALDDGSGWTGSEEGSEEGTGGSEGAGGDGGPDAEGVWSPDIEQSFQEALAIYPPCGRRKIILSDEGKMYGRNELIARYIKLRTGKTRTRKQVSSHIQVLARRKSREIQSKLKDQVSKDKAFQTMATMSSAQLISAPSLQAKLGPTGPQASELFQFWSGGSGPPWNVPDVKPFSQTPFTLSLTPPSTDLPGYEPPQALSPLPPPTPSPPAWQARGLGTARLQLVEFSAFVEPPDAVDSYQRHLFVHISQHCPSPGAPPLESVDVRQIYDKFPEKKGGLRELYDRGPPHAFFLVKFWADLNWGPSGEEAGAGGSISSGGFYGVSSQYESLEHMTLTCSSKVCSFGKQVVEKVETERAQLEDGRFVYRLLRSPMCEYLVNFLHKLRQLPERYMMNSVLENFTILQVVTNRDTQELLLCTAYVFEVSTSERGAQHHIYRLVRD
# TEAD4 = TEAD4 (Homo sapiens (Human), UniProt Q15561); assay: TR-FRET lipid pocket probe competition assay (Lipid HTRF), TEAD4; format: binding; details: 4 hours pre-incubation; read-out: Lipid HTRF TEAD4 IC50;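 further: His-tagged TEAD4 with biotinylated lipid-pocket probe, read by Europium anti-His and XL665 streptavidin, where probe displacement lowers the TR-FRET signal, IC50 from a four-parameter fit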
# Chain of TEAD4 (Q15561 whole entry, species assumed): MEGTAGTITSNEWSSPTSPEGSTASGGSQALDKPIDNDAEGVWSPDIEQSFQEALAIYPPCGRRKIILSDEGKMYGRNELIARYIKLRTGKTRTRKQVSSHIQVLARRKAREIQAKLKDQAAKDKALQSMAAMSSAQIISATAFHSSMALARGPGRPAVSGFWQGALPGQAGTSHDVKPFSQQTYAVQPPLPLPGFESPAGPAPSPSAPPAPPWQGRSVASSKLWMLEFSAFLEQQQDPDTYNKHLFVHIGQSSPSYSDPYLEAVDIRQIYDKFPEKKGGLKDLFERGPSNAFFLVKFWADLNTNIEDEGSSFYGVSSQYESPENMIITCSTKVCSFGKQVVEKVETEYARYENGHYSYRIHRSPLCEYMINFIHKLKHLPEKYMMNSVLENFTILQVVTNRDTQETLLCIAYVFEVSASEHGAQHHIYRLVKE
# TEAD2 [2] = target: T1, TEAD2
# Chain of TEAD3 (Q99594 whole entry, species assumed): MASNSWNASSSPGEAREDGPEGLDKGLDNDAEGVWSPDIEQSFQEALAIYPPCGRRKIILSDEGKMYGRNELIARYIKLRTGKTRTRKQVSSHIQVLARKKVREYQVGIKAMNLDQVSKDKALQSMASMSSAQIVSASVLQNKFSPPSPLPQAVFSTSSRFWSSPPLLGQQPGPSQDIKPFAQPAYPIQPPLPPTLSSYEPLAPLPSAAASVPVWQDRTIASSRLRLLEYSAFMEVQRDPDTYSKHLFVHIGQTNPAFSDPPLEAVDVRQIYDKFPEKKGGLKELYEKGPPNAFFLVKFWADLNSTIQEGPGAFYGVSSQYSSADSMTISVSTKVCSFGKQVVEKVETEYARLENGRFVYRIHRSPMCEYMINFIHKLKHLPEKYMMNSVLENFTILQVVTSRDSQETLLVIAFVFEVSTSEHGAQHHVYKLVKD
SMILES,IC50 (TEAD3) [nM],IC50 (TEAD1) [nM],IC50 (TEAD2 [1]) [nM],IC50 (TEAD4) [nM],IC50 (TEAD2 [2]) [nM]
"C=CC(=O)NCc1nn(-c2ccc(S(F)(F)(F)(F)F)cc2)c2nccc([C@@H](O)CO)c12 (stereo in doubt) [Compound 27, N-((4-(1,2-dihydroxyethyl)-1-(4-(pentafluoro-λ^6-sulfanyl)phenyl)-1H-pyrazolo[3,4-b]pyridin-3-yl)methyl)acrylamide]",1100,290,270,71,–
"C=CC(=O)NCc1nn(-c2ccc(C(F)(F)F)cc2)c2nccc([C@@H](O)CO)c12 (stereo in doubt) [Compound 88, N-((4-(1,2-dihydroxyethyl)-1-(4-(trifluoromethyl)phenyl)-1H-pyrazolo[3,4-b]pyridin-3-yl)methyl)acrylamide]",2100,80,150,43,–
"C=CC(=O)NCc1nn(-c2cccc(OC(F)(F)F)c2)c2nccc([C@@H](O)CO)c12 (stereo in doubt) [Compound 131, N-((4-(1,2-dihydroxyethyl)-1-(3-(trifluoromethoxy)phenyl)-1H-pyrazolo[3,4-b]pyridin-3-yl)methyl)acrylamide]",2900,290,89,30,–
"C=CC(=O)NCc1nn(-c2ccc(OC(F)(F)F)cc2)c2nccc(-c3cnn(C(C)C)c3)c12 [Compound 170, N-[[4-(1-isopropylpyrazol-4-yl)-1-[4-(trifluoromethoxy)phenyl]pyrazolo[3,4-b]pyridin-3-yl]methyl]prop-2-enamide]",26600,120,–,92.8,355
"C=CC(=O)NCc1nn(-c2ccc(OC(F)(F)F)cc2)c2nccc(-c3cnn(CCN(C)C)c3)c12 [Compound 172, N-[[4-[1-[2-(dimethylamino)ethyl]pyrazol-4-yl]-1-[4-(trifluoromethoxy)phenyl]pyrazolo[3,4-b]pyridin-3-yl]methyl]prop-2-enamide]",19000,470,–,150,810
"C=CC(=O)NCc1nn(-c2ccc(OC(F)(F)F)cc2)c2nccc(-c3cnn(C4CC4)c3)c12 [Compound 173, N-((4-(1-cyclopropyl-1H-pyrazol-4-yl)-1-(4-(trifluoromethoxy)phenyl)-1H-pyrazolo[3,4-b]pyridin-3-yl)methyl)acrylamide]",26200,86,–,52.5,382
"C=C(F)C(=O)N1CC(c2nn(-c3ccc(OC(F)(F)F)cc3)c3nccc(-c4cnn(C5COC5)c4)c23)C1 [Compound 175, 2-fluoro-1-(3-(4-(1-(oxetan-3-yl)-1H-pyrazol-4-yl)-1-(4-(trifluoromethoxy)phenyl)-1H-pyrazolo[3,4-b]pyridin-3-yl)azetidin-1-yl)prop-2-en-1-one]",50000,62,–,45,420
"C=C(F)C(=O)N1CC(c2nn(-c3ccc(OC(F)(F)F)cc3)c3nccc(-c4cnn(CCOC)c4)c23)C1 [Compound 176, 2-fluoro-1-(3-(4-(1-(2-methoxyethyl)-1H-pyrazol-4-yl)-1-(4-(trifluoromethoxy)phenyl)-1H-pyrazolo[3,4-b]pyridin-3-yl)azetidin-1-yl)prop-2-en-1-one]",50000,46,–,77,800
"C=C(F)C(=O)N1CC(c2nn(-c3ccc(OC(F)(F)F)cc3)c3nccc(-c4cnn(C5CC5)c4)c23)C1 [Compound 177, 1-(3-(4-(1-cyclopropyl-1H-pyrazol-4-yl)-1-(4-(trifluoromethoxy)phenyl)-1H-pyrazolo[3,4-b]pyridin-3-yl)azetidin-1-yl)-2-fluoroprop-2-en-1-one]",50000,86,–,120,890
"C=C(F)C(=O)N1CC(c2nn(-c3ccc(OC(F)(F)F)cc3)c3nccc(-c4cnn(C(C)C)c4)c23)C1 [Compound 178, 2-fluoro-1-(3-(4-(1-isopropyl-1H-pyrazol-4-yl)-1-(4-(trifluoromethoxy)phenyl)-1H-pyrazolo[3,4-b]pyridin-3-yl)azetidin-1-yl)prop-2-en-1-one]",50000,87,–,200,860
"C=C(F)C(=O)N1CC(c2nn(-c3ccc(OC(F)(F)F)cc3)c3nccc(-c4cnn(CCS(C)(=O)=O)c4)c23)C1 [Compound 179, 2-fluoro-1-(3-(4-(1-(2-(methylsulfonyl)ethyl)-1H-pyrazol-4-yl)-1-(4-(trifluoromethoxy)phenyl)-1H-pyrazolo[3,4-b]pyridin-3-yl)azetidin-1-yl)prop-2-en-1-one]",50000,32,–,17,650
"C=C(F)C(=O)N1CC(c2nn(-c3ccc(OC(F)(F)F)cc3)c3nccc(-c4cnn(CC(=O)N(C)C)c4)c23)C1 [Compound 180, 2-(4-(3-(1-(2-fluoroacryloyl)azetidin-3-yl)-1-(4-(trifluoromethoxy)phenyl)-1H-pyrazolo[3,4-b]pyridin-4-yl)-1H-pyrazol-1-yl)-N,N-dimethylacetamide]",50000,43,–,110,160
"C=C(F)C(=O)N1CC(c2nn(-c3ccc(OC(F)(F)F)cc3)c3nccc(-c4cnn(CC(N)=O)c4)c23)C1 [Compound 181, 2-(4-(3-(1-(2-fluoroacryloyl)azetidin-3-yl)-1-(4-(trifluoromethoxy)phenyl)-1H-pyrazolo[3,4-b]pyridin-4-yl)-1H-pyrazol-1-yl)acetamide]",50000,24,–,37,62
"C=C(F)C(=O)N1CC(c2nn(-c3ccc(OC(F)(F)F)cc3Cl)c3nccc(CO)c23)C1 [Compound 183, 1-(3-(1-(2-chloro-4-(trifluoromethoxy)phenyl)-4-(hydroxymethyl)-1H-pyrazolo[3,4-b]pyridin-3-yl)azetidin-1-yl)-2-fluoroprop-2-en-1-one]",1100,180,–,110,1800

# Compounds with a lower IC50 (TEAD3), results first:
IC50 (TEAD3) [nM],IC50 (TEAD1) [nM],IC50 (TEAD2 [1]) [nM],IC50 (TEAD4) [nM],IC50 (TEAD2 [2]) [nM],SMILES
890,43,66,17,–,"C=CC(=O)NCc1nn(-c2ccc(S(F)(F)(F)(F)F)cc2)c2nccc([C@H](O)CO)c12 (stereo in doubt) [Compound 23, N-((4-(1,2-dihydroxyethyl)-1-(4-(pentafluoro-λ^6-sulfanyl)phenyl)-1H-pyrazolo[3,4-b]pyridin-3-yl)methyl)acrylamide]"
290,870,430,33,–,"C=CC(=O)NCc1nn(-c2cccc(OC(F)(F)F)c2)c2nccc([C@H](O)CO)c12 (stereo in doubt) [Compound 73, N-((4-(1,2-dihydroxyethyl)-1-(3-(trifluoromethoxy)phenyl)-1H-pyrazolo[3,4-b]pyridin-3-yl)methyl)acrylamide]"
720,480,520,100,–,"C=CC(=O)NCc1nn(-c2ccc(C(F)(F)F)cc2)c2nccc([C@H](O)CO)c12 (stereo in doubt) [Compound 100, N-((4-(1,2-dihydroxyethyl)-1-(4-(trifluoromethyl)phenyl)-1H-pyrazolo[3,4-b]pyridin-3-yl)methyl)acrylamide]"
810,60,–,29,330,"C=CC(=O)NCc1nn(-c2ccc(OC(F)(F)F)cc2)c2nccc(-c3cnn(C4COC4)c3)c12 [Compound 171, N-[[4-[1-(oxetan-3-yl)pyrazol-4-yl]-1-[4-(trifluoromethoxy)phenyl]pyrazolo[3,4-b]pyridin-3-yl]methyl]prop-2-enamide]"
440,25,–,13,130,"C=C(F)C(=O)N1CC(c2nn(-c3ccc(OC(F)(F)F)cc3)c3nccc(-c4cn[nH]c4)c23)C1 [Compound 182, 1-(3-(4-(1H-pyrazol-4-yl)-1-(4-(trifluoromethoxy)phenyl)-1H-pyrazolo[3,4-b]pyridin-3-yl)azetidin-1-yl)-2-fluoroprop-2-en-1-one]"
790,140,–,100,2300,"C=C(F)C(=O)N1CC(c2nn(-c3ccc(OC(F)(F)F)cc3C)c3nccc(CO)c23)C1 [Compound 184, 2-fluoro-1-(3-(4-(hydroxymethyl)-1-(2-methyl-4-(trifluoromethoxy)phenyl)-1H-pyrazolo[3,4-b]pyridin-3-yl)azetidin-1-yl)prop-2-en-1-one]"
260,57,–,31,120,"C=C(F)C(=O)N1CC(c2nn(-c3ccc(OC(F)(F)F)cc3F)c3nccc(CO)c23)C1 [Compound 185, 2-fluoro-1-[3-[1-[2-fluoro-4-(trifluoromethoxy)phenyl]-4-(hydroxymethyl)pyrazolo[3,4-b]pyridin-3-yl]azetidin-1-yl]prop-2-en-1-one]"
255,270,–,52.5,430,"C=CC(=O)NCc1nn(-c2ccc(OC(F)(F)F)cc2)c2cccc(C#N)c12 [Compound 186, N-((4-cyano-1-(4-(trifluoromethoxy)phenyl)-1H-indazol-3-yl)methyl)acrylamide]"
950,91,–,55,1200,"C=CC(=O)NCc1nn(-c2ccc(OC(F)(F)F)cc2)c2cccnc12 [Compound 187, N-((1-(4-(trifluoromethoxy)phenyl)-1H-pyrazolo[4,3-b]pyridin-3-yl)methyl)acrylamide]"
150,7.2,–,7.3,84,"C=CC(=O)NCc1nn(-c2ccc(OC(F)(F)F)cc2)c2ncccc12 [Compound 188, N-((1-(4-(trifluoromethoxy)phenyl)-1H-pyrazolo[3,4-b]pyridin-3-yl)methyl)acrylamide]"
